In assay [1] the test system is primary human fibroblasts derived from IPF patients (LL29 cells). As to the kind of experiment: Inhibition of fibrotic process: αSMA staining in TGF-β1-treated primary human fibroblasts from IPF patients (LL29 cells). Type of assay: cell-based. The note with it: Fibroblast, 96 h, LL29 cells treated with TGF-β1 (20 ng/mL), 4 days, 11-point dose-response from 10 μM to 1.87 nM, read-out: Inhibition of fibrosis EC50. From the text:
The above synthesized compounds were screened using primary human fibroblasts (derived from IPF patients) treated with TGF-β1 to determine their ability to inhibit the fibrotic process.
Primary human fibroblasts derived from IPF patients (LL29 cells) [^1Xiaoqiu Liu, et. al., “Fibrotic Lung Fibroblasts Show Blunted Inhibition by cAMP Due to Deficient cAMP Response Element-Binding Protein Phosphorylation”, Journal of Pharmacology and Experimental Therapeutics (2005), 315(2), 678-687; ^2Watts, K. L., et. al., “RhoA signaling modulates cyclin D1 expression in human lung fibroblasts; implications for idiopathic pulmonary fibrosis”, Respiratory Research (2006), 7(1), 88] were obtained from American Type Culture Collection (ATCC) and expanded in F12 medium supplemented with 15% Fetal Bovine Serum and Penicillin/Streptomycin.
Each compound was dissolved in DMSO as a 10 mM stock and used to prepare compound source plates. Serial dilution (1:2, 11-point dose-response curves from 10 μM to 1.87 nM) and compound transfer was performed using the ECHO 550 (Labcyte, Sunnyvale, Calif.) into 384-well clear bottom assay plates (Greiner Bio-One) with appropriate DMSO backfill for a final DMSO concentration of 0.1%. LL29 cells were plated at 1,500 cells/well in 80 μl/well F12 medium supplemented with 1% Fetal Bovine Serum. One hour after addition of the cells, TGF-β1 (Peprotech; 20 ng/mL) was added to the plates to induce fibrosis (ref. 1 and 2 above). Wells treated with TGF-β1 and containing DMSO were used as controls. Cells were incubated at 37° C. and 5% CO2 for 4 days. Following incubation for 4 days, SYTOX green nucleic acid stain (Life Technologies [Thermo Fisher Scientific]) was added to the wells at a final concentration of 1 uM and incubated at room temperature for 30 min. Cells were then fixed using 4% formaldehyde (Electron Microscopy Sciences), washed 3 times with PBS followed by blocking and permeabilization using 3% Bovine Serum Albumin (BSA; Sigma) and 0.3% Triton X-100 (Sigma) in PBS. Cells were then stained with antibody specific to α-smooth muscle actin (αSMA; Abcam) (ref. 1 and 2 above) in 3% Bovine Serum Albumin (BSA; Sigma) and 0.3% Triton X-100 (Sigma) in PBS, and incubated overnight at 4° C. Cells were then washed 3 times with PBS, followed by incubation with Alexa Flor-647 conjugated secondary antibody (Life Technologies [Thermo Fisher Scientific]) and DAPI at room temperature for 1 hour. Cells were then washed 3 times with PBS and plates were sealed for imaging. αSMA staining was imaged by excitation at 630 nm and emission at 665 nm and quantified using the Compartmental Analysis program on the CellInsight CX5 (Thermo Scientific). Dead or apoptotic cells were excluded from analysis based on positive SYTOX green staining. % of total cells positive for αSMA were counted in each well and normalized to the average of 11 wells treated with TGF-β1 on the same plate using Dotmatics' Studies Software. The normalized averages (fold change over untreated) of 3 replicate wells for each compound concentration were used to create dose-responses curves and EC50 values were calculated using non-linear regression curve fit in the Dotmatics' Studies Software. The EC50 values are reported.

The test system of assay [2] is Wnt activity (Wnt-responsive Sp5 promoter-luciferase reporter in SW480 cells). As to the kind of experiment: Wnt activity screening assay: Sp5-Luc reporter gene in SW480 colon carcinoma cells. The class given is cell-based. The note with it: Homo sapiens. From the text:
The screening assay for Wnt activity is described as follows. Reporter cell lines can be generated by stably transducing cancer cell lines (e.g., colon cancer) or primary cells (e.g., IEC-6 intestinal cells) with a lentiviral construct that includes a Wnt-responsive promoter driving expression of the firefly luciferase gene.
SW480 colon carcinoma cells were transduced with a lentiviral vector expressing luciferase with a human Sp5 promoter consisting of a sequence of eight TCF/LEF binding sites. SW480 cells stably expressing the Sp5-Luc reporter gene and a hygromycin resistance gene were selected by treatment with 150 μg/ml of hygromycin for 7 days. These stably transduced SW480 cells were expanded in cell culture and used for all further screening activities. For Sp5-Luc reporter gene assays, the cells were plated at 10,000 cells/well in 96-well plates with growth medium containing 10% fetal calf serum and incubated overnight at 37° C. and 5% CO2. Each compound was dissolved in DMSO as a 10 mM stock in standard j-vials and used to prepare compound source plates in dose-response format with 3-fold serial dilutions and a 10 mM top concentration. Compound transfer from serially diluted source plates to assay plates containing the cells was accomplished using a pintool (Multimek 96, Beckman equipped with V&P Scientific FP1S50H pins) based liquid handling protocol. This protocol used a slotted pin to transfer 50 nl of compound from a source plate well to an assay plate well containing 50 μl of cells in growth medium. […] Control wells received 50 nl of DMSO treatment for normalization and calculating IC50 values. The treated cells were incubated at 37° C. and 5% CO2 for an additional forty-two hours. Following incubation, the growth medium was removed and 50 μl of BrightGlo luminescence reagent (Promega) was added to each well of the 96-well assay plates. The plates were placed on an orbital shaker for 5 min and then luminescence was quantified on the Victor3 (Perkin Elmer) plate reader. Readings were normalized to DMSO only treated cells, and normalized activities were utilized for IC50 calculations using the dose-response log (inhibitor) vs. response-variable slope (four parameters) nonlinear regression feature available in GraphPad Prism 5.0 or 6.0.
On the technique in general: Reporter assays use an easily measured gene product as a stand-in for the process of interest.

The structures appear in SMILES notation. pEC50, pIC50: −log10 of the molar value.

Usually pEC50 stands for the negative decadic logarithm of the EC50, by convention in mol/L. The pIC50 is the negative decadic logarithm of the IC50, by convention in mol/L. Low values mean a high IC50, high ones a low IC50. Regarding `Fc1ccc(-c2cncc3[nH]c(-c4n[nH]c5cnc(-c6cncc(CN7CCCC7)c6)cc45)nc23)cc1` [Compound 40, 3-(7-(4-Fluorophenyl)-3H-imidazo[4,5-c]pyridin-2-yl)-5-(5-(pyrrolidin-1-ylmethyl)pyridin-3-yl)-1H-pyrazolo[3,4-c]pyridine], the negative-log EC50 (pEC50) in assay [1] was 5.75. This compound gave a pIC50 in assay [2] of 5.97.

Regarding `c1cc(-c2cncc3[nH]c(-c4n[nH]c5cnc(-c6cncc(CNCC7CCCC7)c6)cc45)nc23)co1` [Compound 284, 1-Cyclopentyl-N-((5-(3-(7-(furan-3-yl)-3H-imidazo[4,5-c]pyridin-2-yl)-1H-pyrazolo[3,4-c]pyridin-5-yl)pyridin-3-yl)methyl)methanamine], the pEC50 in assay [1] was 6.04. For the same compound, in assay [2], the pIC50 was 6.58.

Regarding `Cc1ccc(-c2cncc3[nH]c(-c4n[nH]c5cnc(-c6cncc(NC(=O)C7CCCC7)c6)cc45)nc23)s1` [Compound 359, N-(5-(3-(7-(5-Methylthiophen-2-yl)-3H-imidazo[4,5-c]pyridin-2-yl)-1H-pyrazolo[3,4-c]pyridin-5-yl)pyridin-3-yl)cyclopentanecarboxamide], the pEC50 in assay [1] is 6.16. In assay [2], this compound had a pIC50 of 7.47.

Take `Fc1cccc(-c2cncc3[nH]c(-c4n[nH]c5cnc(-c6cncc(CN7CCC(F)(F)C7)c6)cc45)nc23)c1` [Compound 25, 5-(5-((3,3-Difluoropyrrolidin-1-yl)methyl)pyridin-3-yl)-3-(7-(3-fluorophenyl)-3H-imidazo[4,5-c]pyridin-2-yl)-1H-pyrazolo[3,4-c]pyridine]: the negative logarithm of the EC50 (pEC50) in assay [1] was not below 8.05. This compound also showed a negative logarithm of the IC50 (pIC50) in assay [2] of 7.51.

Consider `O=C(Nc1cncc(-c2cc3c(-c4nc5c(-c6ccccc6F)cncc5[nH]4)n[nH]c3cn2)c1)C1CCCC1` [Compound 73, N-(5-(3-(7-(2-Fluorophenyl)-3H-imidazo[4,5-c]pyridin-2-yl)-1H-pyrazolo[3,4-c]pyridin-5-yl)pyridin-3-yl)cyclopentanecarboxamide], for which, in assay [1], the negative logarithm of the EC50 (pEC50) is 5.36. The same compound gave a pIC50 in assay [2] of 6.81.

In the case of `Cc1ccc(-c2cncc3[nH]c(-c4n[nH]c5cnc(-c6cncc(NC(=O)C(C)C)c6)cc45)nc23)s1` [Compound 347, N-(5-(3-(7-(5-Methylthiophen-2-yl)-3H-imidazo[4,5-c]pyridin-2-yl)-1H-pyrazolo[3,4-c]pyridin-5-yl)pyridin-3-yl)isobutyramide], in assay [1], the pEC50 is not below 8.05. Besides, the pIC50 in assay [2] is 8.12.

Regarding `CN(C)CC(=O)Nc1cncc(-c2cc3c(-c4nc5c(-c6cccc(F)c6)cncc5[nH]4)n[nH]c3cn2)c1` [Compound 1367, 2-(Dimethylamino)-N-(5-(3-(7-(3-fluorophenyl)-3H-imidazo[4,5-c]pyridin-2-yl)-1H-pyrazolo[3,4-c]pyridin-5-yl)pyridin-3-yl)acetamide], the negative logarithm of the EC50 (pEC50) in assay [1] was 6.84. In assay [2], this compound showed a negative-log IC50 (pIC50) of 6.29.

As to `FC1(F)CCN(Cc2cncc(-c3cc4c(-c5nc6c(-c7cccs7)cncc6[nH]5)n[nH]c4cn3)c2)C1` [Compound 311, 5-(5-((3,3-Difluoropyrrolidin-1-yl)methyl)pyridin-3-yl)-3-(7-(thiophen-2-yl)-3H-imidazo[4,5-c]pyridin-2-yl)-1H-pyrazolo[3,4-c]pyridine], the pEC50 in assay [1] was 6.60. In addition, the negative logarithm of the IC50 (pIC50) in assay [2] is 7.15.

As for `Cc1ccc(-c2cncc3[nH]c(-c4n[nH]c5cnc(-c6cncc(CN7CCCCC7)c6)cc45)nc23)s1` [Compound 353, 3-(7-(5-Methylthiophen-2-yl)-3H-imidazo[4,5-c]pyridin-2-yl)-5-(5-(piperidin-1-ylmethyl)pyridin-3-yl)-1H-pyrazolo[3,4-c]pyridine], the pEC50 in assay [1] was 6.60. This compound also showed a negative-log IC50 (pIC50) in assay [2] of 5.98.

Take `CC(C)C(=O)Nc1cncc(-c2cc3c(-c4nc5c(N6CCN(C)CC6)cncc5[nH]4)n[nH]c3cn2)c1` [Compound 217, N-(5-(3-(7-(4-Methylpiperazin-1-yl)-3H-imidazo[4,5-c]pyridin-2-yl)-1H-pyrazolo[3,4-c]pyridin-5-yl)pyridin-3-yl)isobutyramide]: the pEC50 in assay [1] is not above 5.00. Moreover, the pIC50 in assay [2] was 6.25.

As to `c1cncc(-c2cncc3[nH]c(-c4n[nH]c5cnc(-c6cncc(CN7CCCCC7)c6)cc45)nc23)c1` [Compound 93, 5-(5-(Piperidin-1-ylmethyl)pyridin-3-yl)-3-(7-(pyridin-3-yl)-3H-imidazo[4,5-c]pyridin-2-yl)-1H-pyrazolo[3,4-c]pyridine], in assay [1], the negative-log EC50 (pEC50) is not above 5.00. The pIC50 in assay [2] was 5.55.

As for `CS(=O)(=O)NCc1cc(F)cc(-c2cncc3[nH]c(-c4n[nH]c5cnc(-c6cncc(CNCc7ccccc7)c6)cc45)nc23)c1` [Compound 413, N-(3-(2-(5-(5-((Benzylamino)methyl)pyridin-3-yl)-1H-pyrazolo[3,4-c]pyridin-3-yl)-3H-imidazo[4,5-c]pyridin-7-yl)-5-fluorobenzyl)methanesulfonamide], the pEC50 in assay [1] was not above 5.00. In assay [2], this compound gave a negative logarithm of the IC50 (pIC50) of 7.24.

Consider `Fc1cccc(-c2cncc3[nH]c(-c4n[nH]c5cnc(-c6ccncc6)cc45)nc23)c1` [Compound 900, 3-(7-(3-Fluorophenyl)-3H-imidazo[4,5-c]pyridin-2-yl)-5-(pyridin-4-yl)-1H-pyrazolo[3,4-c]pyridine], for which the pEC50 in assay [1] is not below 8.05. Besides, the pIC50 in assay [2] was 7.19.

On to `O=C(Nc1cncc(-c2cc3c(-c4nc5c(-c6ccccc6F)cncc5[nH]4)n[nH]c3cn2)c1)C1CCC1` [Compound 72, N-(5-(3-(7-(2-Fluorophenyl)-3H-imidazo[4,5-c]pyridin-2-yl)-1H-pyrazolo[3,4-c]pyridin-5-yl)pyridin-3-yl)cyclobutanecarboxamide], for which the negative-log EC50 (pEC50) in assay [1] was not below 8.05. The compound also gave a negative-log IC50 (pIC50) in assay [2] of 6.84.

In the case of `CC(C)Nc1cncc(-c2cc3c(-c4nc5c(-c6cc(F)cc(NCCN(C)C)c6)cncc5[nH]4)n[nH]c3cn2)c1` [Compound 428, N^1-(3-Fluoro-5-(2-(5-(5-(isopropylamino)pyridin-3-yl)-1H-pyrazolo[3,4-c]pyridin-3-yl)-3H-imidazo[4,5-c]pyridin-7-yl)phenyl)-N2,N2-dimethylethane-1,2-diamine], in assay [1], the negative-log EC50 (pEC50) is not above 5.00. Further, the pIC50 in assay [2] is 6.76.

Regarding `Nc1cncc(-c2cc3c(-c4nc5c(-c6ccccc6F)cncc5[nH]4)n[nH]c3cn2)c1` [Compound 55, 5-(3-(7-(2-Fluorophenyl)-3H-imidazo[4,5-c]pyridin-2-yl)-1H-pyrazolo[3,4-c]pyridin-5-yl)pyridin-3-amine], the negative-log EC50 (pEC50) in assay [1] is not below 8.05. Further, the negative-log IC50 (pIC50) in assay [2] is 7.15.
